Measurements published in PubChem BioAssay AID248 (DTP/NCI, 2004).
“And” between values parts separate entries of the source, which are not always exact repeats. Equal entries are not always repeated. Inconclusive results and toxic doses are left out. Cut-off read from the data, not from the text of the source: active = T/C of 150% or more; inactive = T/C below 125%.

Tested on: L1210 leukemia ip in BDF1 mice, survival T/C
Assay: NCI In Vivo Anticancer Drug Screen. Data for tumor model L1210 Leukemia (intraperitoneal) in B6D2F1 (BDF1) mice
Conditions: endpoint: mean survival time, higher = longer survival
Method in brief: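 Transplantable tumor model; survival measured in treated vs vehicle control mice. Value = treated/control.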

[1] = dose: 25.0 mg/kg/injection, schedule: Q01DX009 (ip), vehicle: Klucel (hydroxypropylcellulose) (HPC)
[2] = dose: 100.0 mg/kg/injection, schedule: Q01DX009 (ip), vehicle: Klucel (hydroxypropylcellulose) (HPC)
[3] = dose: 100.0 mg/kg/injection, schedule: Q04DX003 (ip), vehicle: Klucel (hydroxypropylcellulose) (HPC)
[4] = dose: 200.0 mg/kg/injection, schedule: Q04DX003 (ip), vehicle: Klucel (hydroxypropylcellulose) (HPC)
[5] = dose: 100.0 mg/kg/injection, schedule: Q04DX002 (ip), vehicle: saline with Tween-80
[6] = dose: 200.0 mg/kg/injection, schedule: Q04DX002 (ip), vehicle: saline with Tween-80
[7] = dose: 400.0 mg/kg/injection, schedule: Q04DX002 (ip), vehicle: saline with Tween-80
[8] = dose: 50.0 mg/kg/injection, schedule: Q01DX001 (ip), vehicle: saline
[9] = dose: 100.0 mg/kg/injection, schedule: Q01DX001 (ip), vehicle: saline
[10] = dose: 200.0 mg/kg/injection, schedule: Q01DX001 (ip), vehicle: saline
[11] = dose: 400.0 mg/kg/injection, schedule: Q01DX001 (ip), vehicle: saline
[12] = dose: 100.0 mg/kg/injection, schedule: Q04DX003 (ip), vehicle: saline
[13] = dose: 200.0 mg/kg/injection, schedule: Q04DX003 (ip), vehicle: saline
[14] = dose: 400.0 mg/kg/injection, schedule: Q04DX003 (ip), vehicle: saline
[15] = dose: 100.0 mg/kg/injection, schedule: Q04DX003 (ip), vehicle: saline with Tween-80
[16] = dose: 200.0 mg/kg/injection, schedule: Q04DX003 (ip), vehicle: saline with Tween-80
[17] = dose: 400.0 mg/kg/injection, schedule: Q04DX003 (ip), vehicle: saline with Tween-80
[18] = dose: 100.0 mg/kg/injection, schedule: Q01DX001 (ip), vehicle: Klucel (hydroxypropylcellulose) (HPC)
[19] = dose: 200.0 mg/kg/injection, schedule: Q01DX001 (ip), vehicle: Klucel (hydroxypropylcellulose) (HPC)
[20] = dose: 400.0 mg/kg/injection, schedule: Q01DX001 (ip), vehicle: Klucel (hydroxypropylcellulose) (HPC)
[21] = dose: 400.0 mg/kg/injection, schedule: Q04DX003 (ip), vehicle: Klucel (hydroxypropylcellulose) (HPC)

Measured: T/C

Clc1ccc(NC2=NCCCS2)c2ccccc12
inactive: [1] 98 % of control | dose: 50.0 mg/kg/injection, schedule: Q01DX009 (ip), vehicle: Klucel (hydroxypropylcellulose) (HPC) 102 % of control | [2] 94 % of control and 92 % of control | [3] 97 % of control | [4] 90 % of control

OC(c1ccccc1)C(c1ccccc1)C1CO1 (configuration not stated)
inactive: dose: 12.5 mg/kg/injection, schedule: Q01DX009 (ip), vehicle: DMSO 88 % of control | dose: 25.0 mg/kg/injection, schedule: Q01DX009 (ip), vehicle: DMSO 91 % of control | dose: 100.0 mg/kg/injection, schedule: Q04DX003 (ip), vehicle: other 103 % of control | dose: 200.0 mg/kg/injection, schedule: Q04DX003 (ip), vehicle: other 103 % of control | dose: 400.0 mg/kg/injection, schedule: Q04DX003 (ip), vehicle: other 94 % of control

CCOC(=O)c1cc(Cl)ccc1O
inactive: [5] 89 % of control | [6] 92 % of control | [7] 92 % of control

O=C1OC2c3ccccc3C3CC(=O)C2C13 (configuration not stated)
inactive: [8] 98 % of control | [9] 104 % of control | [10] 98 % of control | [11] 96 % of control

CN1CCN(C(CO)Cc2ccccc2)CC1 (configuration not stated)
inactive: [9] 98 % of control | [10] 104 % of control

N#CCCc1ccnc2ccccc12
inactive: [12] 100 % of control | [13] 102 % of control | [14] 100 % of control

NC(=O)c1ccc[n+](CC(=O)Nc2ccccc2)c1
inactive: [15] 101 % of control | [16] 97 % of control | [17] 95 % of control

Cc1[nH]c(=O)n(C)c(=O)c1C
inactive: [18] 109 % of control | [19] 106 % of control | [20] 104 % of control

c1ccc2cc(SCN3CCOCC3)ccc2c1
inactive: [3] 97 % of control | [4] 101 % of control | [21] 97 % of control

Cc1n(C(C)C)c2c([n+]1C)C(=O)c1ccccc1C2=O
inactive: dose: 0.39 mg/kg/injection, schedule: Q01DX009 (ip), vehicle: saline 106 % of control | dose: 0.78 mg/kg/injection, schedule: Q01DX009 (ip), vehicle: saline 98 % of control | dose: 1.56 mg/kg/injection, schedule: Q01DX009 (ip), vehicle: saline 101 % of control | dose: 1.56 mg/kg/injection, schedule: Q04DX003 (ip), vehicle: acetone 95 % of control | dose: 2.33 mg/kg/injection, schedule: Q01DX009 (ip), vehicle: acetone 88 % of control | dose: 3.54 mg/kg/injection, schedule: Q01DX009 (ip), vehicle: acetone 92 % of control

O=c1cc(/C=N\Nc2ccc([N+](=O)[O-])cc2)[nH]c(=O)[nH]1
inactive: [8] 106 % of control | [9] 95 % of control | [10] 101 % of control | [11] 90 % of control

CCOP(=O)(OCC)Oc1c(Cl)c(Cl)c(O)c(Cl)c1Cl
inactive: [5] 91 % of control | [6] 100 % of control

CC(C)=C(Br)c1c(C)cc(C)c(Nc2ccc([N+](=O)[O-])cc2)c1C
inactive: [12] 94 % of control | [13] 91 % of control | [14] 91 % of control

O=C(Cl)c1ccccc1S(=O)(=O)N(CCOc1ccccc1)c1ccccc1
inactive: [2] 97 % of control | [3] 96 % of control | dose: 200.0 mg/kg/injection, schedule: Q01DX009 (ip), vehicle: Klucel (hydroxypropylcellulose) (HPC) 98 % of control | [4] 91 % of control | dose: 400.0 mg/kg/injection, schedule: Q01DX009 (ip), vehicle: Klucel (hydroxypropylcellulose) (HPC) 97 % of control | [21] 86 % of control

CCC1C(=O)NC(=O)C1(C)c1ccccc1 (configuration not stated)
inactive: dose: 25.0 mg/kg/injection, schedule: Q01DX009 (ip), vehicle: saline 115 % of control | dose: 25.0 mg/kg/injection, schedule: Q04DX003 (ip), vehicle: Klucel (hydroxypropylcellulose) (HPC) 120 % of control | dose: 50.0 mg/kg/injection, schedule: Q01DX009 (ip), vehicle: saline 103 % of control | dose: 50.0 mg/kg/injection, schedule: Q04DX003 (ip), vehicle: Klucel (hydroxypropylcellulose) (HPC) 101 % of control | dose: 100.0 mg/kg/injection, schedule: Q01DX009 (ip), vehicle: saline 98 % of control | [3] 101 % of control | dose: 200.0 mg/kg/injection, schedule: Q01DX009 (ip), vehicle: saline 110 % of control | [4] 93 % of control | dose: 400.0 mg/kg/injection, schedule: Q01DX009 (ip), vehicle: saline 86 % of control | [21] 104 % of control

O=C1C(=O)c2c(nc3ccccn23)-c2ccccc21
inactive: [18] 103 % of control | [19] 94 % of control | [20] 105 % of control

COc1cc(C=C(C#N)C#N)ccc1O
inactive: dose: 12.5 mg/kg/injection, schedule: Q01DX009 (ip), vehicle: Klucel (hydroxypropylcellulose) (HPC) 103 % of control | [1] 97 % of control

CCC(O)(CC)C(C)C
inactive: dose: 90.0 mg/kg/injection, schedule: Q01DX001 (ip), vehicle: saline 97 % of control | [9] 102 % of control | dose: 130.0 mg/kg/injection, schedule: Q01DX001 (ip), vehicle: saline 92 % of control | dose: 300.0 mg/kg/injection, schedule: Q01DX001 (ip), vehicle: saline 96 % of control | [11] 96 % of control

O=C(O)CCC(=O)Nc1ccccc1CC(c1c[nH]c2ccccc12)c1c[nH]c2ccccc12
inactive: [8] 106 % of control | [9] 104 % of control | [10] 106 % of control | [11] 104 % of control

CN(C)CC(O)c1ccc2oc3ccccc3c2c1 (configuration not stated)
inactive: [9] 90 % of control | [10] 97 % of control

O=C(N=C=S)c1ccccc1
inactive: dose: 100.0 mg/kg/injection, schedule: Q01DX009 (ip), vehicle: other 95 % of control | dose: 200.0 mg/kg/injection, schedule: Q01DX009 (ip), vehicle: other 87 % of control | dose: 400.0 mg/kg/injection, schedule: Q01DX009 (ip), vehicle: other 89 % of control

O=C(Nc1ccc(Cl)cc1[N+](=O)[O-])Oc1ccc(-c2ccccc2)cc1
inactive: dose: 100.0 mg/kg/injection, schedule: Q01DX001 (ip), vehicle: saline with Tween-80 97 % of control | dose: 100.0 mg/kg/injection, schedule: Q01DX009 (ip), vehicle: saline with Tween-80 94 % of control and 103 % of control | [5] 97 % of control and 91 % of control | [15] 108 % of control | dose: 200.0 mg/kg/injection, schedule: Q01DX001 (ip), vehicle: saline with Tween-80 100 % of control | dose: 200.0 mg/kg/injection, schedule: Q01DX009 (ip), vehicle: saline with Tween-80 92 % of control | [6] 102 % of control and 90 % of control | [16] 107 % of control | dose: 400.0 mg/kg/injection, schedule: Q01DX001 (ip), vehicle: saline with Tween-80 89 % of control | dose: 400.0 mg/kg/injection, schedule: Q01DX009 (ip), vehicle: saline with Tween-80 106 % of control and 92 % of control | [7] 103 % of control and 91 % of control | [17] 95 % of control

Cc1nc2ccccc2s1
inactive: dose: 100.0 mg/kg/injection, schedule: Q04DX002 (ip), vehicle: saline 106 % of control | dose: 200.0 mg/kg/injection, schedule: Q04DX002 (ip), vehicle: saline 98 % of control | dose: 400.0 mg/kg/injection, schedule: Q04DX002 (ip), vehicle: saline 102 % of control

CCOC(=O)c1cnc(SC)nc1NNc1nc(SC)ncc1C(=O)OCC
inactive: [3] 93 % of control | [4] 90 % of control | [21] 93 % of control

O=c1cc(N2CCOCC2)nc2ccccn12
inactive: dose: 100.0 mg/kg/injection, schedule: Q01DX001 (ip), vehicle: carboxymethylcellulose (CMC) 100 % of control | dose: 200.0 mg/kg/injection, schedule: Q01DX001 (ip), vehicle: carboxymethylcellulose (CMC) 96 % of control | dose: 400.0 mg/kg/injection, schedule: Q01DX001 (ip), vehicle: carboxymethylcellulose (CMC) 102 % of control
